Reference: patent US20050014181A1, “Methods and compositions for the assessment of polymer assembly” (priority 2003, published 2005)

What was measured:
[1] = tested on: SMC-mediated collagen fibrillogenesis; experiment: Treatment effects on SMC-mediated collagen fibrillogenesis (FITC-labeled collagen assembly assay, fluorescence plate reader); type: cell-based, mouse; design: % fibrillogenesis of no treatment control / effect of treatment on SMC-assisted collagen fibrillogenesis (FIG. 5A-B) / effect of treatment on collagen fibrils (FIG. 5C): unit of the concentration uncertain; conditions: for % fibrillogenesis of no treatment control: 1 (unit uncertain) of compound (smallest concentration used), green fluorescence normalized by cell density
Description: (§1) In one embodiment, the assay consists of adding a solution of FITC-labeled protein to cultured cells in the presence or absence of various treatments, then returning the cells to the incubator (37° C., 5% CO2) for various periods of time. Supramolecular protein assembly can be followed in time as a gain of fluorescence using a fluorescence plate reader, or by confocal microscopy with live cells or after fixation of cells. Specifically, for the development of this assay, SMC were used that had been plated into black clear-bottomed 96-well tissue culture-treated plates (Fisher) at 10,000 cells per well in 100 µL of DMEM+10% FBS 2 days prior to performing the assay.
After 24 h, the culture medium was changed to DMEM without FBS to promote cell quiescence, then SMC were returned to the incubator (37° C., 5% CO2) for an additional 24 h. Before the start of the assay, the culture medium was aspirated from each well and replaced with 100 µL of FITC-labeled collagen, BSA, or denatured collagen in DMEM without FBS, final concentration between […]. The cells were returned to the incubator for time periods up to 24 h.
(§2) At the end of the assay, the culture medium was aspirated and replaced with 10% buffered formalin (Fisher) for 10 min. For normalization of results, cell nuclei were counterstained using HOECHST [500 ng/mL in phosphate-buffered saline (PBS), pH 7.4] for 5 min. The wells subsequently were washed two times with PBS, then 100 µL of PBS were added to each well and the intensity of the fluorescence was measured with a fluorescence plate reader (CytoFluor® series 4000, PerSeptive Biosystems) using the following settings for protein assembly: ex=480 nm, em=530 nm, gain 85, and ex=360 nm, em=460 nm, gain 80 for cell nuclei.
In each quantitative assay, twelve wells of a 96-well plate were used for each condition. Average background readings were obtained from wells without cells or without labeled collagen monomer solution (six each) to ensure that the assay measured only the cell-assisted protein assembly.
To assess the ability of our assay to detect the effects of treatments that interfere with cell cytoskeleton, and therefore may affect fibrillogenesis, SMC were pretreated with […] of cytochalasin D, a chemical that disrupts organization of the actin cytoskeleton, for 30 min prior to the assay. The same concentrations were maintained throughout the assay. Retinoic acid, which has the opposite effect, stiffening SMC cytoskeleton, was added at […] of final concentrations.
To test whether the assay can detect formation of fibrils by incorporating de novo synthesized endogenous collagen, effect of treatments that should directly affect this process were investigated. Ascorbic acid, which enhances the triple helix organization of de novo synthesized collagen, was added at 5, 10, and 50 µM of final concentrations to the SMC culture medium for 24 h prior to the assay and maintained throughout the assay. Homocysteine thiolactone, which is a lysyl oxidase inhibitor and thus impairs the higher organization of collagen, was used at 5, 10, 50, 100, and 500 µM of final concentration in the SMC culture media. To assess the potential effects of these treatments, fibrillogenesis was calculated as the percentage of fibrillogenesis mediated by nontreated SMC.

mouse aortic SMC = experiment: Protein assembly assay: FITC-labeled protein added to mouse aortic SMC (plate reader / fluorescence microscopy); type: cell-based; conditions: labeled protein incubated with SMC for 24 h
Description: as §1, with “assay. […]” for “assay.”
as §2, with “For normalization of results, cell nuclei were counterstained using HOECHST [500 ng/mL in phosphate-buffered saline (PBS), pH 7.4] for 5 min.” left out
In each quantitative assay, twelve wells of a 96-well plate were used for each condition. […]

SMC = experiment: SDS-PAGE / phosphoimager detection of FITC-labeled protein recovered after incubation with SMC; type: cell-based; conditions: 50 or 100 mg/mL, 24 h with SMC in culture
Description: SMC were plated in 6-well tissue culture plates at a density of 500,000 cells per well. After 24 h, the media was aspirated and replaced with 1 mL of serum-free media containing 50 or 100 µg/mL of FITC-labeled BSA, collagen, or denatured collagen and placed back in a 37° C., 5% CO2 incubator for 24 h for assembly. The SMC cultured with labeled proteins then were rinsed twice with PBS, after which cell extracts were taken using […] of acidified (0.02M of acetic acid) lysis buffer. Samples […] from each condition before and after culturing with SMC were run on an 1.5-mm SDS-PAGE gel (Biorad apparatus) for 2 h at 150 V. FITC-labeled protein bands were imaged using a phosphoimager (Storm 860, Molecular Dynamics) with the ability to detect green fluorescence.

C=C1[C@@H](C)[C@H]2[C@H](Cc3ccccc3)NC(=O)[C@]23[C@H](OC(C)=O)/C=C/[C@@](C)(O)C(=O)[C@@H](C)C/C=C/[C@H]3[C@@H]1O [cytochalasin D, Cytochalasin D]
% fibrillogenesis of no treatment control [1]: 12.1±1.0%
effect of treatment on SMC-assisted collagen fibrillogenesis (FIG. 5A-B) ([1]; increasing concentrations (1, 5, 10 (unit uncertain))): impairs the ability of SMC to facilitate fibrillogenesis

labeled BSA: FITC-labeled bovine serum albumin
supramolecular assembly seen by fluorescence microscopy (mouse aortic SMC): No assembly was detected
association of labeled protein with SMC monolayer (SDS-PAGE) (SMC): neither BSA nor denatured collagen was associated with cells

O=C1O[C@H]([C@@H](O)CO)C(O)=C1O [ascorbic acid, Ascorbic acid]
effect of treatment on collagen fibrils (FIG. 5C) ([1]; 5, 10, 50 (unit uncertain), added 24 h prior to the assay and maintained throughout): moderate, yet statistically significant, enhancement of collagen fibrils

CC1=C(/C=C/C(C)=C/C=C/C(C)=C/C(=O)O)C(C)(C)CCC1 [retinoic acid, Retinoic acid]
% fibrillogenesis of no treatment control [1]: 59.5±9.4%

NC1CCSC1=O (stereo not shown) [homocysteine thiolactone, Homocysteine thiolactone]
effect on SMC-mediated collagen assembly ([1]; up to concentrations twice the IC50 value (5-500 M), data not shown): no effects
